Results on twelve compounds are retold here after PubChem BioAssay (NCI).

Molecules are shown by their SMILES.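 A five-concentration, 48-hour dose response in 96-well plates underlies each endpoint, interpolated linearly between surrounding concentrations. TGI is the concentration that stops growth completely.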

Test systems include HOP-92 NSCLC; BT-549 breast; SK-MEL-28 melanoma; SN12C renal; SF-295 CNS; HOP-62 NSCLC; OVCAR-8 ovarian; RXF 393 renal; HT29 colon; SK-MEL-2 melanoma; MDA-MB-435; UACC-62 melanoma; SF-268 CNS; OVCAR-5 ovarian; SNB-75 CNS; NCI-H23 lung; HCT-116 colon; RPMI-8226 leukemia; SR leukemia.
Holding throughout (experiment): inhibition of tumour cell growth, NCI panel, 48 h

As for `CC(=O)C1C(=O)C(=O)N(c2ccc([N+](=O)[O-])cc2)C1=O` (configuration not stated), the TGI with HOP-92 NSCLC, in the assay with BT-549 breast, in the assay with SK-MEL-28 melanoma, with SN12C renal, in the assay on SF-295 CNS and with HOP-62 NSCLC was over 100 µM each time. Besides, the TGI in the assay on OVCAR-8 ovarian, in the assay with RXF 393 renal, in the assay with HT29 colon, in the assay with SK-MEL-2 melanoma, in the assay with MDA-MB-435 and in the assay with UACC-62 melanoma was over 100 µM in each case. Also, the TGI with SF-268 CNS, in the assay on OVCAR-5 ovarian, in the assay on SNB-75 CNS, in the assay on NCI-H23 lung and in the assay on HCT-116 colon was over 100 µM throughout.

As for `Nc1cccc(OCC2CCCN3CCCCC23)c1` (configuration not stated), the TGI amounted to 87.4 µM in the assay with HOP-92 NSCLC; 30.9 µM in the assay on BT-549 breast; 35.7 µM with SK-MEL-28 melanoma; 33.6 µM in the assay with SN12C renal; 33.8 µM in the assay on SF-295 CNS; 36.1 µM in the assay on HOP-62 NSCLC. Further, the TGI worked out at 34.4 µM in the assay on OVCAR-8 ovarian; 42.7 µM in the assay on RXF 393 renal; 33.1 µM in the assay with RPMI-8226 leukemia; 25.1 µM in the assay on HT29 colon; 44.9 µM in the assay on SK-MEL-2 melanoma; 40.2 µM with MDA-MB-435. For the same compound, the TGI with UACC-62 melanoma was determined as 31.8 µM; with SF-268 CNS, 36.2 µM; in the assay with OVCAR-5 ovarian, 35.2 µM; in the assay with SNB-75 CNS, 30.8 µM; with NCI-H23 lung it was 34.3 µM; in the assay on HCT-116 colon, 30.4 µM.

For `COC(=O)c1cc(O)c(O)c(O)c1-c1c(O)c(O)c(O)c(SC[C@H](NC(=O)OCc2ccccc2)C(=O)OCc2ccccc2)c1C(=O)OC`, the TGI was over 100 µM in the assay with HOP-92 NSCLC; over 100 µM with BT-549 breast; over 100 µM in the assay with SK-MEL-28 melanoma; 41.8 µM in the assay with SN12C renal; over 100 µM in the assay with SF-295 CNS; over 100 µM in the assay with HOP-62 NSCLC. Moreover, the TGI in the assay with OVCAR-8 ovarian is 52.7 µM; with RXF 393 renal, over 100 µM; in the assay with RPMI-8226 leukemia, 81.7 µM; in the assay on HT29 colon it was 86.5 µM; in the assay on SK-MEL-2 melanoma it was 52.9 µM; in the assay on MDA-MB-435 it was 44 µM. The TGI in the assay on UACC-62 melanoma is 64.8 µM; in the assay on SF-268 CNS, over 100 µM; in the assay with OVCAR-5 ovarian it was over 100 µM; in the assay on SNB-75 CNS it was 68.1 µM; in the assay with NCI-H23 lung, 50.3 µM; in the assay with HCT-116 colon, 35.7 µM.

Take `COC(=O)c1ccc(C)cc1CC1Cc2cccc(C)c2C1=O` (configuration not stated): the TGI with HOP-92 NSCLC was 58.7 µM; with BT-549 breast, 87.6 µM; in the assay with SK-MEL-28 melanoma, 55.7 µM; in the assay with SN12C renal, 78.2 µM; with SF-295 CNS it was 72.2 µM; in the assay with HOP-62 NSCLC, over 100 µM. Moreover, the TGI worked out at 33.5 µM in the assay on OVCAR-8 ovarian; 30.2 µM in the assay with RXF 393 renal; 6.06 µM in the assay with HT29 colon; 17.1 µM in the assay on SK-MEL-2 melanoma; 3.34 µM with MDA-MB-435; 49.6 µM in the assay on UACC-62 melanoma. In addition, the TGI was over 100 µM with SF-268 CNS; over 100 µM with OVCAR-5 ovarian; 36.9 µM in the assay on SNB-75 CNS; over 100 µM with NCI-H23 lung; 20.8 µM in the assay on HCT-116 colon.

Turning to `COc1ccc(-c2csc(Cc3nc4c(Br)cc(Br)cc4c(=O)n3-c3ccc(OC)cc3)n2)cc1`, the TGI with HOP-92 NSCLC, with BT-549 breast, in the assay with SK-MEL-28 melanoma, with SF-295 CNS, with HOP-62 NSCLC and in the assay on OVCAR-8 ovarian was over 100 µM in each case. Also, the TGI in the assay with RXF 393 renal, in the assay on HT29 colon, in the assay with SK-MEL-2 melanoma, in the assay on MDA-MB-435, with UACC-62 melanoma and with OVCAR-5 ovarian was over 100 µM in each case. Further, the TGI in the assay with SNB-75 CNS, in the assay with NCI-H23 lung and with HCT-116 colon was over 100 µM throughout.

In the case of `O=[N+]([O-])c1cc(N=Nc2c(O)ccc3cc(S(=O)(=O)O)ccc23)c(O)c([N+](=O)[O-])c1`, the TGI with HOP-92 NSCLC, with BT-549 breast, in the assay with SK-MEL-28 melanoma, with SN12C renal, in the assay on SF-295 CNS and with HOP-62 NSCLC was over 100 µM each time. Further, the TGI with OVCAR-8 ovarian, with RXF 393 renal, in the assay on RPMI-8226 leukemia, in the assay with HT29 colon, in the assay on SK-MEL-2 melanoma and in the assay with MDA-MB-435 was over 100 µM in each case. The TGI in the assay on UACC-62 melanoma, with SF-268 CNS, with OVCAR-5 ovarian, in the assay on SNB-75 CNS, in the assay with NCI-H23 lung and in the assay on HCT-116 colon was over 100 µM throughout.

In the case of `CCOC(=O)CSC1NC(C(=O)OC)CC1OC` (configuration not stated), the TGI in the assay on HOP-92 NSCLC, in the assay with BT-549 breast, in the assay on SK-MEL-28 melanoma, with SF-295 CNS, in the assay with HOP-62 NSCLC and in the assay with OVCAR-8 ovarian was over 100 µM throughout. Further, the TGI with RXF 393 renal, with RPMI-8226 leukemia, with HT29 colon, with SK-MEL-2 melanoma, in the assay on MDA-MB-435 and in the assay on UACC-62 melanoma was over 100 µM in each case. Moreover, the TGI in the assay on SF-268 CNS, with OVCAR-5 ovarian, with SNB-75 CNS, in the assay on NCI-H23 lung and in the assay with HCT-116 colon was over 100 µM each time.

`COc1ccc(CCNC(=O)c2ccccc2C2c3ccc(OCc4ccccc4)cc3Oc3cc(OCc4ccccc4)ccc32)cc1OC`: the TGI in the assay on BT-549 breast, in the assay on SK-MEL-28 melanoma, in the assay on SN12C renal, in the assay on SF-295 CNS, in the assay with HOP-62 NSCLC and with OVCAR-8 ovarian was over 100 µM in each case. Moreover, the TGI with RXF 393 renal, in the assay with RPMI-8226 leukemia, in the assay with HT29 colon, in the assay with SK-MEL-2 melanoma, with MDA-MB-435 and in the assay on UACC-62 melanoma was over 100 µM throughout. The TGI with SF-268 CNS, with OVCAR-5 ovarian, with NCI-H23 lung, with HCT-116 colon and in the assay on SR leukemia was over 100 µM each time.

Regarding `C=CCN1C[C@H](C)N([C@H](c2ccc(C(=O)N(CC)CC)cc2)c2cccc(OC)c2)C[C@H]1C`, the TGI in the assay with HOP-92 NSCLC was 63.9 µM; in the assay on BT-549 breast it was over 100 µM; in the assay on SK-MEL-28 melanoma, over 100 µM; in the assay with SN12C renal, over 100 µM; in the assay on SF-295 CNS, 58.3 µM; in the assay on HOP-62 NSCLC, over 100 µM. The TGI in the assay on OVCAR-8 ovarian, in the assay on RPMI-8226 leukemia, in the assay with HT29 colon, in the assay with SK-MEL-2 melanoma, with MDA-MB-435 and in the assay with UACC-62 melanoma was over 100 µM each time. Moreover, the TGI in the assay on SF-268 CNS, in the assay on OVCAR-5 ovarian, with NCI-H23 lung, with HCT-116 colon and in the assay with SR leukemia was over 100 µM each time.

Take `CN1C(=O)C(C(=O)Nc2ccccn2)C2C[C@@]1(C)Oc1ccccc12` (some centres not stated): the TGI in the assay with HOP-92 NSCLC, with BT-549 breast, in the assay with SK-MEL-28 melanoma, with SF-295 CNS, in the assay with HOP-62 NSCLC and in the assay on OVCAR-8 ovarian was over 100 µM each time. Besides, the TGI in the assay on RXF 393 renal, with RPMI-8226 leukemia, in the assay with HT29 colon, with SK-MEL-2 melanoma, in the assay with MDA-MB-435 and in the assay on UACC-62 melanoma was over 100 µM in each case. Also, the TGI in the assay on SF-268 CNS, with OVCAR-5 ovarian, in the assay with SNB-75 CNS, in the assay with NCI-H23 lung and in the assay on HCT-116 colon was over 100 µM throughout.

`Cc1cc(S(=O)(=O)Nc2nnc3ccccn23)c(S)cc1Cl`: the TGI with BT-549 breast is over 100 µM; in the assay with SK-MEL-28 melanoma it was over 100 µM; with SN12C renal it was over 100 µM; in the assay with SF-295 CNS, 64.8 µM; with HOP-62 NSCLC, over 100 µM; with OVCAR-8 ovarian it was over 100 µM. In addition, the TGI with RPMI-8226 leukemia, with HT29 colon, in the assay on SK-MEL-2 melanoma, in the assay on MDA-MB-435, in the assay on UACC-62 melanoma and with OVCAR-5 ovarian was over 100 µM throughout. Also, the TGI with NCI-H23 lung, in the assay with HCT-116 colon and with SR leukemia was over 100 µM in each case.

Regarding `CCNC1=C(NC(=O)c2ccccc2)C(=O)c2ccccc2C1=O`, the TGI in the assay on HOP-92 NSCLC, in the assay on BT-549 breast, with SK-MEL-28 melanoma, with SN12C renal, in the assay on SF-295 CNS and with HOP-62 NSCLC was over 100 µM each time. Moreover, the TGI in the assay on OVCAR-8 ovarian is over 100 µM; in the assay with RXF 393 renal it was 74.1 µM; in the assay with RPMI-8226 leukemia it was over 100 µM; in the assay on HT29 colon it was 82.5 µM; in the assay with MDA-MB-435, 19.4 µM; with UACC-62 melanoma, over 100 µM. In addition, the TGI in the assay on OVCAR-5 ovarian, in the assay on NCI-H23 lung, in the assay with HCT-116 colon and in the assay with SR leukemia was over 100 µM throughout.
